Measured values as given in ChEMBL document CHEMBL1201862, “PubChem BioAssay data set” (2004).
Activity calls are given as the source filed them.

Key:
[1] = target: T1, Coagulation factor XII (Homo sapiens, UniProt P00748); assay type: functional;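 further: activated factor XIIa alpha cleaving a fluorogenic AMC peptide substrate; inhibitor potency from loss of enzyme activity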
T1 sequence (P00748 whole entry): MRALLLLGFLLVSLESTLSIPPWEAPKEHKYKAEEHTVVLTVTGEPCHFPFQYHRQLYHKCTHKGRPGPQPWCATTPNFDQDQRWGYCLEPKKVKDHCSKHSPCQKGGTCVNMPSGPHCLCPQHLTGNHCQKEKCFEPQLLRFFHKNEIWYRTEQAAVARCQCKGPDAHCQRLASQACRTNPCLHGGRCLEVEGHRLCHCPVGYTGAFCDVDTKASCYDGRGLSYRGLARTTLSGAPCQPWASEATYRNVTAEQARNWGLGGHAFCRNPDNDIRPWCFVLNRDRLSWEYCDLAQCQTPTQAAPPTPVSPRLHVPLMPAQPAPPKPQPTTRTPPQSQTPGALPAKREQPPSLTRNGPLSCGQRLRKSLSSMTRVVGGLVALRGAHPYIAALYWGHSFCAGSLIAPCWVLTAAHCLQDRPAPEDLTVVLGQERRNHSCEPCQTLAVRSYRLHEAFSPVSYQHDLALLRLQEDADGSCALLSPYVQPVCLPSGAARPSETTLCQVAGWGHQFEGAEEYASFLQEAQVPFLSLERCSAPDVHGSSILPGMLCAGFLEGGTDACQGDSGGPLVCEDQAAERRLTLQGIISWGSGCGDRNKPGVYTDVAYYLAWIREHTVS

[2] = target: Cytochrome P450 2D6 (Homo sapiens, UniProt P10635);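 further: CYP2D6 member of a cytochrome P450 panel assay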
[3] = target: T2, Calpain-2 catalytic subunit (Sus scrofa, UniProt P43367); assay: m-calpain protease blockers, concentration series – biochemical, fluorogenic peptide substrate, dose response (AID 1420); assay type: functional
T2 sequence (P43367 whole entry): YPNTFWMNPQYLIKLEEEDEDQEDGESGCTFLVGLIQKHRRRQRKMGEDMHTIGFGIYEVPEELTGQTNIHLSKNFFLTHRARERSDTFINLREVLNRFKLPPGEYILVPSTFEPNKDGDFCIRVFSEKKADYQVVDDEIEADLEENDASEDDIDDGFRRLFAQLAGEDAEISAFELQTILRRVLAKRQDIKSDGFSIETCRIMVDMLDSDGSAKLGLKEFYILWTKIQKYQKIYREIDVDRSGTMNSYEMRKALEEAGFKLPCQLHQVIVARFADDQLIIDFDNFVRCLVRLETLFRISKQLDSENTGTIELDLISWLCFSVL

[4] = target: Cytochrome P450 2C9 (Homo sapiens, UniProt P11712)
[5] = THP-1 cell cytotoxicity, dose response, cytotoxicity control for non-replicating M. tuberculosis project (AID 489025); assay type: functional
[6] = target: Nonstructural protein 1 (Influenza A virus, UniProt Q194T2); assay type: functional, Influenza A virus (A/California/07/2009(H1N1))
[7] = cells; assay type: functional, cell-based
[8] = cells; assay type: functional
[9] = cells; assay type: functional, cell-based; remark: listed apart in the source
[10] = target: T3, Hexokinase HKDC1 (Homo sapiens, UniProt Q2TB90); assay: inhibition of HKDC1 glucose phosphorylation – biochemical, W721R variant, dose response (AID 504729); assay type: functional
T3 sequence (Q2TB90 whole entry): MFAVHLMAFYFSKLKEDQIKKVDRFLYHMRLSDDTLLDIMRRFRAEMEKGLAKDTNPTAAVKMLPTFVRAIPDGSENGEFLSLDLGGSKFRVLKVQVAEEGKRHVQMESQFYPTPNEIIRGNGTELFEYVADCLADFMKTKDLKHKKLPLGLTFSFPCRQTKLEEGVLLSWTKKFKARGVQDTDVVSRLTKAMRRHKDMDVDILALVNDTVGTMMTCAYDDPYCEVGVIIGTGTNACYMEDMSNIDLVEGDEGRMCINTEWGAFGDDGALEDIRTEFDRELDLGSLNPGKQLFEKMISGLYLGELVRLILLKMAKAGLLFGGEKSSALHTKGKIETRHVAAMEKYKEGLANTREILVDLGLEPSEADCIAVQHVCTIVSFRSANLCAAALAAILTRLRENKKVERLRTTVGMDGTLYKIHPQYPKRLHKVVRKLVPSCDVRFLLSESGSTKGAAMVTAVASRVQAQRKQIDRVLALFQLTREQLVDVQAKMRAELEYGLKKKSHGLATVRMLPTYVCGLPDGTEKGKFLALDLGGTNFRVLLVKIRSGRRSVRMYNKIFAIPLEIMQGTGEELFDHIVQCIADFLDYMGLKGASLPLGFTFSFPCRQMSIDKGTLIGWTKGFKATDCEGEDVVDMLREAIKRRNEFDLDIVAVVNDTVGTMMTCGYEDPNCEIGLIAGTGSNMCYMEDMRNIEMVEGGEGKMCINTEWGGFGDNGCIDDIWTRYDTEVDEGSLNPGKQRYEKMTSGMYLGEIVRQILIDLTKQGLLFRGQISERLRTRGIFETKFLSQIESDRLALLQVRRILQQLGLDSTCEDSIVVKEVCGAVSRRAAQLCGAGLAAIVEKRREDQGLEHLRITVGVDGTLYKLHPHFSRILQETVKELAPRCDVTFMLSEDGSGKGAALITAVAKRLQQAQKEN

[11] = cells
[12] = target: Voltage-dependent T-type calcium channel subunit alpha-1H (Homo sapiens, UniProt O95180); assay type: functional;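 further: channel activity triggered by adding a high calcium stimulation buffer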
[13] = viability of uninfected HEp-2 cells – cell-based, HTS, cytotoxicity control for RSV inhibitor project, dose response (AID 2410); assay type: functional; conditions: human respiratory syncytial virus
[14] = target: Glyceraldehyde-3-phosphate dehydrogenase (Homo sapiens, UniProt P04406)
[15] = target: T4, Alkaline phosphatase, tissue-nonspecific isozyme (Homo sapiens, UniProt P05186); assay: potency against alkaline phosphatase TNAP – biochemical, luminescent, dose response, SAR follow-up (AID 1056)
T4 sequence (P05186 whole entry): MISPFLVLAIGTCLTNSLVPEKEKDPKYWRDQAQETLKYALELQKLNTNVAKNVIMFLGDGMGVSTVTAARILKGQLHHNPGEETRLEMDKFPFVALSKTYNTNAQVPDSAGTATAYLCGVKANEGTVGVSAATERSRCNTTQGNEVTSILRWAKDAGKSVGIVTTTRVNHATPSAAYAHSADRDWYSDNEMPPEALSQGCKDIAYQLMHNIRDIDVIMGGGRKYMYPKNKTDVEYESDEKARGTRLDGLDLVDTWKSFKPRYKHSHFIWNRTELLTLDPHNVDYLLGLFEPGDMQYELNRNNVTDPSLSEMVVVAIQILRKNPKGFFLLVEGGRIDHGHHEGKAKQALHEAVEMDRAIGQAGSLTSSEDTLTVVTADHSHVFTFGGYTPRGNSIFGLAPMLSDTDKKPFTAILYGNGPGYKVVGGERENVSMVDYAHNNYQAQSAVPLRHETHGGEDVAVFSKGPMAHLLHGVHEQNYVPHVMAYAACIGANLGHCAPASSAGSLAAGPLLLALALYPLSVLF

[16] = target: T5, Ubiquitin-conjugating enzyme E2 N (Homo sapiens, UniProt P61088); assay type: functional
T5 sequence (P61088 whole entry): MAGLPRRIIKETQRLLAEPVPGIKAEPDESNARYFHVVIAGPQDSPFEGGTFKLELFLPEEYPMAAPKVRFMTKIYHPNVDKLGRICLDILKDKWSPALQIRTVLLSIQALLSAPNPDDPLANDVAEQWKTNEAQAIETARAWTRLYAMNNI

[17] = target: T6, Streptokinase A (Streptococcus pyogenes serotype M1, UniProt P10520); assay: viability-normalized secreted streptokinase activity reduction – plasminogen activation absorbance, OD405, dose response (AID 1914); assay type: functional, Streptococcus pyogenes M1 GAS;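 further: secreted streptokinase activity via plasminogen activation per viability signal from cell pellet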
T6 sequence (P10520 whole entry): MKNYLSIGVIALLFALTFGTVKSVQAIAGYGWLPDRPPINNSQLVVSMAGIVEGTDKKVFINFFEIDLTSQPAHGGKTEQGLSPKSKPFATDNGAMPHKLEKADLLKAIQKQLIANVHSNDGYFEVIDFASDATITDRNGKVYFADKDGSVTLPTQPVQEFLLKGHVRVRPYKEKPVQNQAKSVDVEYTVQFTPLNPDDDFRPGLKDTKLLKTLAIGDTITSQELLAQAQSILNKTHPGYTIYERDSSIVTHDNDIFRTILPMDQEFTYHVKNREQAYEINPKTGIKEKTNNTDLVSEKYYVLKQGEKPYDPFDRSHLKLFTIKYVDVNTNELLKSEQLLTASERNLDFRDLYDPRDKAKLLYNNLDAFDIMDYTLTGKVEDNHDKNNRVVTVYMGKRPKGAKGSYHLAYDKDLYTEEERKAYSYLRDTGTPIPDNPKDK

[18] = system: Streptococcus sp. 'group A'; assay: Streptococcus pyogenes SK(-)GAS viability under kanamycin – luminescence, BacTiterGlo, confirmation, counter-screen for streptokinase expression inhibitor project, dose response (AID 1900); assay type: functional, organism-based
[19] = target: T5, Ubiquitin-conjugating enzyme E2 N; assay type: functional; remark: listed apart in the source
[20] = target: T7, Bcl-2-related protein A1 (Mus musculus, UniProt Q07440); assay type: functional;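 further: confirmatory dose–response counterscreen on Bfl-1, used to check hits from a UBC13 polyubiquitin inhibitor campaign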
T7 sequence (Q07440 whole entry): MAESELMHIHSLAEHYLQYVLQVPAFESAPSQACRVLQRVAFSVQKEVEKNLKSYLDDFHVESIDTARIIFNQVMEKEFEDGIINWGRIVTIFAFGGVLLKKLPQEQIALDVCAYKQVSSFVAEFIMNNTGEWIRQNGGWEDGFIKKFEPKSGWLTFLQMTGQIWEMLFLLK

[21] = system: Streptococcus; assay: GAS UMAA2166 growth inhibition – luminescence, BacTiterGlo, counter-screen for streptokinase expression inhibitor project, dose response (AID 1915); assay type: functional, organism-based;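 further: potency for reduction of bacterial viability or growth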
[22] = target: FAD-linked sulfhydryl oxidase ALR (Homo sapiens, UniProt P55789); assay: ALR-catalysed DTT oxidation blockers – biochemical, H2O2 detection, luminescence, cherry-pick, dose response (AID 493248)
Sequence of FAD-linked sulfhydryl oxidase ALR (P55789 whole entry): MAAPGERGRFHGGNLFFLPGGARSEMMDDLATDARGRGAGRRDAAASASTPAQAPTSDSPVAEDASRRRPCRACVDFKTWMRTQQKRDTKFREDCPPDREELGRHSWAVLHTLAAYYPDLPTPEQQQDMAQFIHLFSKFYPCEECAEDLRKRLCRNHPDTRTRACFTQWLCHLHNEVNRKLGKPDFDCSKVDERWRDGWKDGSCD

Sequence of Glyceraldehyde-3-phosphate dehydrogenase (P04406 whole entry): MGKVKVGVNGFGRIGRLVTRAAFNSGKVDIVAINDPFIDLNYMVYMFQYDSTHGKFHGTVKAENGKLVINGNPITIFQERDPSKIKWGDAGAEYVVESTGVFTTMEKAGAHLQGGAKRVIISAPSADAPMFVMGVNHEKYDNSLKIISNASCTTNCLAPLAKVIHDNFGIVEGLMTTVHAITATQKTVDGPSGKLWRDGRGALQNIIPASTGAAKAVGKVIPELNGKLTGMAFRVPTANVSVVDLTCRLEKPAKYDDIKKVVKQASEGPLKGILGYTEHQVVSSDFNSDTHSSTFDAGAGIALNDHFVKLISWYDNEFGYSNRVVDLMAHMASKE
Sequence of Nonstructural protein 1 (Q194T2 whole entry): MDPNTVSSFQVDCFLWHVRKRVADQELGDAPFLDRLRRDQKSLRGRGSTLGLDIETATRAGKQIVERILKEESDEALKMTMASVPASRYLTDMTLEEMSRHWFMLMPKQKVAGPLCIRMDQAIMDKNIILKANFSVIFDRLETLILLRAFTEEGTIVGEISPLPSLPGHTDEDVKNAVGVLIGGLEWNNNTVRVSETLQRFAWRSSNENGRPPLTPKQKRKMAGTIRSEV
Sequence of Cytochrome P450 2C9 (P11712 whole entry): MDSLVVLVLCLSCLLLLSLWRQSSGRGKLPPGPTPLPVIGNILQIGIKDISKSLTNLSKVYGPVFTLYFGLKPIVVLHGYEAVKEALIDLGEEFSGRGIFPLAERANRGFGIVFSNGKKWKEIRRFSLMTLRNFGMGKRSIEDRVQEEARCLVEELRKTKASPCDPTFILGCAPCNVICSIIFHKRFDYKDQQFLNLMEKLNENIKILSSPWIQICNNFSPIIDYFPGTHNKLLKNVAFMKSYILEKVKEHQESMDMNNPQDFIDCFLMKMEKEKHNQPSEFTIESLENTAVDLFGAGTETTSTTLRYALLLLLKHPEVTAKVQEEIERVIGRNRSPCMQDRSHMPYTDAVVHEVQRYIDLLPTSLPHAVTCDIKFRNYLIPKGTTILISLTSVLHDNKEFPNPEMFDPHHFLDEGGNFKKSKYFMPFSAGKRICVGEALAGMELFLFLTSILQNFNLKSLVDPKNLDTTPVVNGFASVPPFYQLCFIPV
Sequence of Cytochrome P450 2D6 (P10635 whole entry): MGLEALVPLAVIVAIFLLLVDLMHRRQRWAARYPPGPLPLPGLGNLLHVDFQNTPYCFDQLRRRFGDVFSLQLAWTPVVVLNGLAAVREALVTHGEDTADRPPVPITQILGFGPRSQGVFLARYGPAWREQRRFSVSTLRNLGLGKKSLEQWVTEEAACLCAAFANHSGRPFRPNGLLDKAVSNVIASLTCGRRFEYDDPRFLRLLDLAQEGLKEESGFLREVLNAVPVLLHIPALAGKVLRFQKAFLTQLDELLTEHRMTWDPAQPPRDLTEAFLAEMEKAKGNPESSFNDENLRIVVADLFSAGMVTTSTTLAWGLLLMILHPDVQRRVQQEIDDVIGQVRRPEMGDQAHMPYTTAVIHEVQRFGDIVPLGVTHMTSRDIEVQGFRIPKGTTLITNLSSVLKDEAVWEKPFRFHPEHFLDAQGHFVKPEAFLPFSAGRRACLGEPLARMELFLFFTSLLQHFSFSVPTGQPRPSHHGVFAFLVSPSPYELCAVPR
Sequence of Voltage-dependent T-type calcium channel subunit alpha-1H (O95180 whole entry): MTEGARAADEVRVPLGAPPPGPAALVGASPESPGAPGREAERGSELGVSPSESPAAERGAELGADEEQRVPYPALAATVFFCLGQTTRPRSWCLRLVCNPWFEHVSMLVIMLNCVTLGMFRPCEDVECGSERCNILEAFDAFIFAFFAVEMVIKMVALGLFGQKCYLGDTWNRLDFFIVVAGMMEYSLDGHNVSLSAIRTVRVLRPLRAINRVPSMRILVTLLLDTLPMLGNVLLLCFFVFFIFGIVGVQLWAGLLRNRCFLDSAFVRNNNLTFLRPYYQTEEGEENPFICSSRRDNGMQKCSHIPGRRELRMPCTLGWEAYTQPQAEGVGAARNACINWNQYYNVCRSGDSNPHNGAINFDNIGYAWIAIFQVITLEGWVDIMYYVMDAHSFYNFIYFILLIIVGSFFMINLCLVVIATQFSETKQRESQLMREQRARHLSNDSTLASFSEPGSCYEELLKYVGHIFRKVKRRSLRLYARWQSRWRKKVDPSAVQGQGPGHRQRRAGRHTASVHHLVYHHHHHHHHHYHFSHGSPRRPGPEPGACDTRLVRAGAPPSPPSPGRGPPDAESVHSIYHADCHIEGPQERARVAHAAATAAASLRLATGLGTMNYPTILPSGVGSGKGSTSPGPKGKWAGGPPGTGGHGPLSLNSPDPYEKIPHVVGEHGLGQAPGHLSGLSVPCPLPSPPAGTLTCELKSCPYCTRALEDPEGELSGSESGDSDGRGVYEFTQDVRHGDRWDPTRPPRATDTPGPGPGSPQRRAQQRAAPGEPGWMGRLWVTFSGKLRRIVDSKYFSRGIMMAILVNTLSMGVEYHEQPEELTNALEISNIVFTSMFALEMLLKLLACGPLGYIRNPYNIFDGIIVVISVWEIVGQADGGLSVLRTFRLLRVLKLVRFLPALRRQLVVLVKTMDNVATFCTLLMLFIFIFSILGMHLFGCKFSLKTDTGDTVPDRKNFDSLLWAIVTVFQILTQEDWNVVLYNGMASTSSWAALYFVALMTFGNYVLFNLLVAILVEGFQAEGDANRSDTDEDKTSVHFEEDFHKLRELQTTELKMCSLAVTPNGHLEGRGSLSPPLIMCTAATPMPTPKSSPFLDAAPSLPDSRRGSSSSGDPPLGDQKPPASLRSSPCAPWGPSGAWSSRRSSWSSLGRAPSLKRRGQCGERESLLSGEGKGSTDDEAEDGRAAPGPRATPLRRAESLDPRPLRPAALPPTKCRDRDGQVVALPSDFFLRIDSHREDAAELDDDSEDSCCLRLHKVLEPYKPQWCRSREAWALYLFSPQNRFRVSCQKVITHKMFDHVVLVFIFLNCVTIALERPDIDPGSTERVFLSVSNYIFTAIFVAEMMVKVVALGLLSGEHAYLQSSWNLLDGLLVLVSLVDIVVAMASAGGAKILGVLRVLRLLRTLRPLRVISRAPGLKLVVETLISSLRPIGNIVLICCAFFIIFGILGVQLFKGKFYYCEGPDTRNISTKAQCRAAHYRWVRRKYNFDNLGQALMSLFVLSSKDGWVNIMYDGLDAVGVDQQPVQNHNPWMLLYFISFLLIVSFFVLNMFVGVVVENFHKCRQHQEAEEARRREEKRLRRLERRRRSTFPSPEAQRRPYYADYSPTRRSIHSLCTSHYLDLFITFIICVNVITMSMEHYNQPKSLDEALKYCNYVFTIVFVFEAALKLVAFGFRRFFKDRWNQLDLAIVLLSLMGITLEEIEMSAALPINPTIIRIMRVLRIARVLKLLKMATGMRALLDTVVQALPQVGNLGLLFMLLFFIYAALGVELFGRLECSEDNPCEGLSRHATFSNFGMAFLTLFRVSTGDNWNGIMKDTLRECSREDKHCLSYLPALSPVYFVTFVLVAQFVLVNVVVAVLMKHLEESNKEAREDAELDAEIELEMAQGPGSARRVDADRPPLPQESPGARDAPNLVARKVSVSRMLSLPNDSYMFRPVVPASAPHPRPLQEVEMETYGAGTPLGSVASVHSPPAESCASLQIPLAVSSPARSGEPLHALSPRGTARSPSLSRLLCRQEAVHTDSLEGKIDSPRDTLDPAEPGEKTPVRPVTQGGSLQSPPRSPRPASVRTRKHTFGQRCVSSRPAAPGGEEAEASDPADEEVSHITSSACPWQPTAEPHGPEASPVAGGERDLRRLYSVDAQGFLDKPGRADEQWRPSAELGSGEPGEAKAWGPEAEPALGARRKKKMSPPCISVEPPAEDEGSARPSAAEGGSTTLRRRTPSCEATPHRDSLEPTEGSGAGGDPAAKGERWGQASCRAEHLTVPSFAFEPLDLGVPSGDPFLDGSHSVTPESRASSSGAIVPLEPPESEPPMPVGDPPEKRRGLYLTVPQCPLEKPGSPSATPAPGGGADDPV

With Cc1ccc(NC(=O)CSCC(N)=O)cc1C the IC50 [1] was > 50 µM (inactive).
In the case of O=C(Cc1ccccc1)NC(NC(=S)Nc1cc(Cl)ccc1Cl)C(Cl)(Cl)Cl (configuration not stated), the IC50 [1] is reported as > 50 µM (inactive), the AC50 [2] is reported as 3.16 µM (inconclusive) and the IC50 [3] is reported as > 50 µM (not active).
With COc1ccc(C(=O)N/N=C/c2cccc3cccnc23)cc1 the AC50 [4] was “inconclusive”, the CC50 [5] was 14.7 µM (active) and the IC50 [6] was 5.8 µM (active). The EC50 [7] was 15.5 µM (active), the IC50 [8] was 3.44 µM (active) and the EC50 [9] was > 350 µM (not active).
In the case of O=C(O)c1ccc(/N=C/c2c(O)ccc3ccccc23)cc1, the IC50 [10] is reported as 38.1 µM (inactive).
For COc1ccc(NC(=O)CSc2n[nH]c(-c3ccccn3)n2)cc1, the IC50 [6] was 4.25 µM (active).
In the case of COc1cccc(C(=O)N(Cc2nc(-c3cccc(C)c3)no2)C(C)C)c1OC, the IC50 [11] is reported as 4.69 µM (active), the EC50 [12] is reported as 12.7 µM (active) and the CC50 [13] is reported as 30.6 µM (active).
In the case of O=C(CN(Cc1cccs1)C(=O)CCC(=O)Nc1nccs1)NCc1ccccc1, the IC50 [1] is reported as > 50 µM (inactive).
For O=S(=O)(Nc1cccnc1)c1cc(Cl)cc(Cl)c1O, the IC50 [14] was > 100 µM (not active) and the IC50 [15] was > 100 µM (inactive).
With c1cncc(-c2cncnc2)c1 the IC50 [14] was > 100 µM (not active) and the IC50 [15] was > 100 µM (inactive).
With CC1CC(C)(C)n2c(O)c(/N=N/C(=N)S)c3cccc1c32 (configuration not stated) the IC50 [16] was 4.95 µM (active), the EC50 [17] was > 150 µM (not active) and the EC50 [18] was 9.25 µM (active). For the same compound, the IC50 [19] was 6.33 µM (active), the IC50 [20] was > 20 µM (inactive) and the EC50 [21] was > 150 µM (not active).
For CCc1nc2c(c(=O)c3ccccc3n2C)c(=O)n1-c1ccc(F)cc1, the IC50 [10] was 7.9 µM (active).
For O=C(CSc1nnc(CCCN2C(=O)c3cccc4cccc(c34)C2=O)n1-c1ccccc1)N1CCCCC1, the IC50 [10] was 11.4 µM (active).
In the case of N#C/C(=N\Nc1ccccc1)C(N)=S, the IC50 [1] is reported as > 50 µM (inactive).
In the case of Cc1ccc(-c2nc3ccccn3c2Nc2ccccc2)o1, the CC50 [5] is reported as > 40 µM (active), the IC50 [8] is reported as 19.7 µM (active) and the AC50 [22] is reported as 0.235 µM (active).
